Results: US20180325840A1, “COMPOSITIONS AND METHODS FOR PREVENTING OR TREATING FATTY PANCREAS OR AMELIORATING PANCREAS DISEASES CAUSED BY FATTY PANCREAS, DIABETES MELLITUS OR OTHER RELATED DISORDERS” (NATIONAL DEFENSE EDUCATION AND RESEARCH FOUNDATION, priority 2015, published 2018)

Assays:
Type in all cases: in vivo
[1] = system: B6 mice; assay: Triglyceride (TG) and total cholesterol (TC) in pancreatic tissue of high-fat diet mice; conditions: 4 weeks of administration
Description: (§1) The experimental animals employed were B6 mice. The number of test animals in each group of the pre-test was four or more, and the number of test animals in each group of the confirmation test was twelve or more. Male mice having a weight of 18 to 23 g were bred in an animal room with a normal light and dark cycle (7:00 am to 7:00 pm being the bright period, and the rest being the dark period) at a temperature of 23±2° C. and a relative humidity of 55±15%. After the animals were purchased from Lesco Biotech Co., Ltd. (Taipei) and housed at the National Defense Animal Center, the animal experiments were conducted following the Experimental Guide of National Health Research Institute. First, the animals were fed with 3-5 grams of general diet daily, and the water was supplied infinitely. After 1 to 2 weeks of breeding, the healthy state was observed. The body weight was recorded once a week.
(§2) The test animals were randomly grouped into blank control (Blank), high-fat control (HFD), positive control (PS), and test group. The blank control was given a normal diet; the high-fat control was given a high-fat diet; the positive control was given a high-fat diet and tube fed with silymarin (5 mg/kg/day) (Iranian Journal of Pharmaceutical Research (2016), 15 (3): 493-500; Life Sciences 75 (2004) 2167-2180; and Pharm Biol. 2016 Jul. 8:1-6); and the test group was given a high-fat diet and tube fed with the test ingredient individually.
(§3) The blank control was fed with a normal diet arbitrarily for 12 weeks. The high-fat control, the positive control, and the test group were fed with a high-fat diet arbitrarily for 12 weeks. After 8 weeks of feeding, the blank control and the high-fat control were tube fed with deionized water once a day. The positive control was tube fed with silymarin once a day. The test group was tube fed with test compound(s) once a day for 4 weeks.
1.4.6 Analysis of Triglyceride (TG) and Total Cholesterol (TCHO, TC) in Pancreatic Tissue
After the mice were sacrificed, the pancreas was taken out and weighed to compare the ratios of pancreas weight to body weight. The remaining pancreas was frozen and preserved, and the contents of triglyceride and the total cholesterol in the pancreas were measured.
(§4) All data were expressed as mean±standard deviation (SD), and the test results were calculated using the ANOVA test method to determine whether there was a statistically significant difference by using the Statistical Package of the Social Science program (Version 13, SPSS Inc.) software package. Subsequently, post hoc test least significant difference method was used to perform multiple comparisons to confirm the significant differences between the groups. The significant difference between the averages of the groups was p<0.05.

[2] = system: B6 mice; assay: Blood glucose analysis (GLU) in high-fat diet mice
Description: as §1, §2, §3
1.4.2 Analysis of Biochemical Functions of the Pancreas: Blood Glucose Analysis (GLU)
Blood glucose analysis was performed with Roche's ACCU-CHEK Active blood glucose meter. One day before blood collection, mice were fasted overnight. The code card of the blood glucose test paper was inserted into the blood glucose meter, and then the blood glucose test paper was inserted. After the blood drop pattern appeared on the meter, a drop of blood was taken from in vein at the cheek of the mouse with a buccal needle and then dropped into the blood glucose test paper. The blood glucose data shown on the blood glucose meter were recorded.
as §4

[3] = system: B6 mice; assay: Intraperitoneal glucose tolerance test (IPGTT) in high-fat diet mice
Description: as §1, with “Male mice having a weight of 18 to 23 g were bred in an animal room with a normal light and dark cycle (7:00 am to 7:00 pm being the bright period, and the rest being the dark period) at a temperature of 23±2° C. and a relative humidity of 55±15%.” left out
The test animals were randomly grouped into blank control (Blank), high-fat control (HFD), positive control (PS), and test group.
as §3
1.4.3 Analysis of Biochemical Functions of the Pancreas: Intraperitoneal Glucose Tolerance Test (IPGTT)
The mice were moved into a clean cage and fasted overnight. There was no food or feces at the feeding funnel or the bottom of the clean cage to ensure that the animals may get drinking water at all times. The body weight of the mice was measured, and the volume of the glucose solution required for intraperitoneone (IP) injection was calculated (based on a concentration of 250 mg/mL and 2 g of glucose per kg of mouse weight, the volume (μl) required would be 8× body weight (g)). The mice were moved out and injected intraperitoneally with an appropriate amount of glucose solution, and the injection time was recorded. Blood samples were taken from the tail of the mice at 0, 15, 30, 60, 120 and 150 minutes after the glucose solution was injected. The concentration of blood glucose was measured, and the blood glucose analysis was performed using the Roche's ACCU-CHEK Active blood glucose meter.
as §4

[4] = system: B6 mice; assay: Fasting insulin concentration (ELISA) in high-fat diet mice
Description: as §1, §2, §3
1.4.4 Analysis of Biochemical Functions of the Pancreas: Analysis of Fasting Insulin Concentration
At the end of the test (at the twelfth week), the mice were fasted to collect the blood following the operation instructions of the mouse ultrasensitive insulin ELISA kit (ALPCO).
as §4

[5] = system: B6 mice; assay: Homeostasis model assessment of insulin resistance (HOMA-IR) in high-fat diet mice
Description: as §1, §2, §3
1.4.5 Analysis of Biochemical Functions of the Pancreas: Homeostasis Model Assessment of Insulin Resistance (HOMA-IR)
The mice were fasted to collect the blood at the end of the test (at the twelfth week), and the concentrations of blood glucose and insulin were measured and calculated according to the following formula: […]
as §4

[6] = system: B6 mice; assay: Serum (plasma) triglyceride (TG) in high-fat diet mice; conditions: 4 weeks of administration
Description: as §1, §2, §3
Before the start of the test and at the 8th and 12th week after the start of the test, blood was collected from the cheek or heart. All the animals were weighed and then sacrificed at the end of the test, and blood was collected from the cheek or heart again. The blood samples of mice were allowed to stand at room temperature for 1 hour to coagulate, and then centrifuged at 15,700×g by a frozen centrifuge at 4° C. for 5 minutes to separate the serum.
1.4.1 Analysis of Serum Triglyceride (TG) and Total Cholesterol (TCHO, TC)
Triglyceride (TG) and total cholesterol (TCHO, TC) in the serum were measured by the automatic blood biochemical analyzer.
as §4

[7] = 1.5 mg/kg, 4 weeks of administration

OC[C@H]1O[C@H](O[C@]2(CCl)O[C@H](CCl)[C@@H](O)[C@@H]2O)[C@H](O)[C@@H](O)[C@H]1Cl [sucralose]
pancreatic TC ([1]; 1.5 mg/kg tube fed once a day): 4.2 ± 0.5 mg/g pancreatic tissue | pancreatic TG ([1]; 1.5 mg/kg tube fed once a day): 8.1 ± 5.6 mg/g pancreatic tissue | pancreatic TC ([1]; 7.5 mg/kg tube fed once a day): 3.1 ± 0.4 mg/g pancreatic tissue | pancreatic TG ([1]; 7.5 mg/kg tube fed once a day): 5.2 ± 2.1 mg/g pancreatic tissue | GLU ([2]; fasted overnight, 1.5 mg/kg, 4 weeks of administration): 128.7 ± 19.3 mg/dL | effect on GLU (in words) ([2]; single test compound): significantly reduce | AUC of IPGTT ([3]; 2 g/kg glucose IP, blood glucose vs. time, 1.5 mg/kg, 4 weeks of administration): 44.2 ± 3.7 g·h/dL | effect on sugar tolerance (IPGTT, in words) ([3]; single test compound): significantly reduce | fasting insulin concentration [4, 7]: 1.3 ± 0.5 ng/mL | effect on fasting insulin concentration (in words) ([4]; single test compound): significantly reduce | HOMA-IR [5, 7]: 0.4 ± 0.2 | effect on insulin resistance (in words) ([5]; single test compound): significantly reduce | TG (plasma triglyceride) ([6]; 1.5 mg/kg): 126.9 ± 43.3 mg/dL | TG (plasma triglyceride) ([6]; 7.5 mg/kg): 186.9 ± 17.2 mg/dL
